Laboratory results reported in patent publication US20110160147A1, “NOVEL DUAL TARGETING A[…]” (priority 2008, published 2011).
Several values for one entry are separate records, joined by “and”; a condition that tells them apart may be missing. Identical values can stand only once.

Key:
[1] = test system: A2780 ovarian carcinoma cells; assay: Cytotoxicity, sulphorodamine B test (A2780); assay type: cell-based, human; conditions: A2780, 72 h of treatment; read-out: IC50 ± SD, cytotoxicity
Method: (§1) To evaluate the effect of the compound on survival cells, the sulphorodamine B test was used. To measure the effects of the compounds on cell growth, PC3 human prostate carcinoma and A2780 human ovarian carcinoma cells were used. A2780 and PC3 tumour cells were grown RPMI 1640 containing 10% fetal bovine serum (GIBCO).
(§2) Tumour cells were seeded in 96-well tissue culture plates at approximately 10% confluence and were allowed to attach and recover for at least 24 h. Varying concentrations of the drugs were then added to each well to calculate their IC50 value (the concentration which inhibits the 50% of cell survival). The plates were incubated at 37° C. for 72 h. At the end of the treatment, the plates were washed by removal of the supernatant and addition of PBS 3 times. 200 μl PBS and 50 μl of cold 80% trichloroacetic acid (TCA) were added. The plates were incubated on ice for at least 1 h. TCA was removed and the plates were washed 3 times by immersion in distilled-water and dried on paper and at 40° C. for 5 min. Then 200 μl of 0.4% sulphorodamine B in 1% acetic acid were added. The plates were incubated at RT for further 30 min. Sulphorodamine B was removed, the plates were washed by immersion in 1% acetic acid 3 times, then they were dried on paper and at 40° C. for 5 min. Then 200 μl Tris 10 mM were added, the plates were kept under stirring for 20 min. The cell survival was determined by means of optical density using a Multiskan spectrofluorimeter at 540 nm. The amount of cells killed was calculated as the percentage decrease in sulphorodamine B binding compared with control cultures.
(§3) The IC50 values were calculated with the “ALLFIT” program.

[2] = test system: PC3 prostate carcinoma cells; assay: Cytotoxicity, sulphorodamine B test (PC3); assay type: cell-based, human; conditions: PC3, 72 h of treatment; read-out: IC50 ± SD, cytotoxicity
Method: as §1, §2, §3

[3] = test system: A2780 ovarian ca. xenografted in CD1 nude mice; assay: Antitumour activity against A2780 ovarian carcinoma xenografted in CD1 nude mice; assay type: in vivo; conditions: for TVI % versus control mice: 6 days after last treatment
Method: (§4) Tumour cell lines (3×10^6) were injected s.c. into the right flank of CD1 nude mice (Harlan). Each experimental group included 10 mice. Tumours were implanted on day 0, and tumour growth was followed by biweekly measurements of tumour diameters with a Vernier caliper. Tumour volume was calculated according to the formula: TV (mm^3)=d^2×D/2, where d and D are the shortest diameter and the longest diameter respectively. Drug treatment started when tumours were just measurable on day 3 after tumour inoculation. The drug was administered subcutaneously for two weeks according to the schedule qd×5/w×2w at different doses in a volume of 10 ml/kg. Control mice were treated with the vehicle (10% DMSO).
(§5) Drug efficacy was assessed as described below. • a) TVI in drug-treated versus control mice was expressed as follows: TVI (%)=100−(mean TV treated/mean TV control)×100. TVI was evaluated 6 days after the last treatment, this timing corresponding to the time necessary to observe a doubling of tumour volume in the control mice. • b) Log cell kill (LCK) was calculated using the following formula: LCK=(T−C)/3.32×DT where T and C are the mean time (in days) required for treated (T) and control (C) tumours, respectively to reach a determined volume, and DT is the time necessary to observe a doubling of tumour volume in the control mice. • c) CR was defined as disappearance of the tumour lasting at least 6 days after the end of treatments. Tumours that had not regrown by the end of the experiment were considered “cured”.
(§6) Toxic effects of drug treatment were assessed as described below. • a) BWL was calculated as follows: BWL (%)=100−(mean body weight day x/mean body weight day 1)×100, where day 1 is the first day of treatment, and day x is any day thereafter. Mice were weighed every day throughout the period of treatment. • b) Lethal toxicity was defined as any death in treated groups occurring before any control death. Mice were inspected daily for mortality.
(§7) TI (therapeutic index) was calculated as ratio MTD/ED80.

[4] = as above; assay type: in vivo; conditions: CD1 nude, mouse, in vivo, sc; s.c. qdx5/wx2w; read-out: approximate maximum tolerate dose (MTD)
Method: as §4, §5, §6, §7

[5] = test system: PC3 prostate ca. xenografted in CD1 nude mice; assay: Antimetastatic activity on bone metastases induced by intracardiac injection of PC3 human prostate carcinoma; assay type: in vivo
Method: Male CD1 nude mice were anesthetized by 4 ml/kg of a mixture (xylazine:ketavet 100) given i.p. PC3 tumour cells were inoculated by intracardiac injection (1×10^5 cells/0.1 ml/mouse) into the heart left ventricle of mice using a 27-gauge needle. Mice were subdivided (11 mice/group) in the following experimental groups and after three days from tumour injection the molecules were administered as described:
Vehicle (DMSO 10%) i.v. q4d×4.
To evaluate the antitumour activity of the drug, high-resolution total body radiological analysis was carried out by using Faxitron system. Radiological analysis was carried out 30 days after tumour injection. Body weight recordings were carried out through the study and mortality was noted.

[6] = 0.92 mg/10 ml/kg s.c. qdx5/wx2w
[7] = 2.77 mg/10 ml/kg s.c. qdx5/wx2w

CC[C@@]1(O)C(=O)OCc2c1cc1n(c2=O)Cc2c-1nc1ccccc1c2C=NOCCNC(=O)OCc1ccc(NC(=O)[C@H](CCCNC(N)=O)NC(=O)[C@H](C)NC(=O)COCCOCCOCC(=O)NCc2ccc(C[C@@H]3NC(=O)[C@@H](Cc4ccccc4)NC(=O)[C@H](CC(=O)O)NC(=O)CNC(=O)[C@H](CCCNC(=N)N)NC3=O)cc2)cc1 [ST3833]
IC50 [1]: 95 ± 20 nM
IC50 [2]: 4600 ± 800 nM
BWL % (maximum body weight loss) [3, 6]: 0%
CR (disappearance of tumour) [3, 6]: 3/10
Cured (mice without lesion 90 days after tumour injection) [3, 6]: 3/10
LCK (log cell kill) [3, 6]: 0.9
Lethal toxicity (dead/treated animals) [3, 6]: 0/10
TVI % versus control mice [3, 6]: 60%
cured mice ([3]; 0.92 mg/kg): 30%
BWL % (maximum body weight loss) [3, 7]: 0%
CR (disappearance of tumour) [3, 7]: 3/10
Cured (mice without lesion 90 days after tumour injection) [3, 7]: 3/10
LCK (log cell kill) [3, 7]: 1.1
Lethal toxicity (dead/treated animals) [3, 7]: 0/10
TVI % versus control mice [3, 7]: 75%
cured mice ([3]; 2.77 mg/kg): 30%
BWL % (maximum body weight loss) ([3]; 8.3 mg/10 ml/kg s.c. qdx5/wx2w): 0%
CR (disappearance of tumour) ([3]; 8.3 mg/10 ml/kg s.c. qdx5/wx2w): 5/10
Cured (mice without lesion 90 days after tumour injection) ([3]; 8.3 mg/10 ml/kg s.c. qdx5/wx2w): 4/10
LCK (log cell kill) ([3]; 8.3 mg/10 ml/kg s.c. qdx5/wx2w): 2.7
Lethal toxicity (dead/treated animals) ([3]; 8.3 mg/10 ml/kg s.c. qdx5/wx2w): 0/10
TVI % versus control mice ([3]; 8.3 mg/10 ml/kg s.c. qdx5/wx2w): 100%
BWL % (maximum body weight loss) ([3]; 25 mg/10 ml/kg s.c. qdx5/wx2w): 25% and 24%
CR (disappearance of tumour) ([3]; 25 mg/10 ml/kg s.c. qdx5/wx2w): 9/9
Cured (mice without lesion 90 days after tumour injection) ([3]; 25 mg/10 ml/kg s.c. qdx5/wx2w): 9/9
LCK (log cell kill) ([3]; 25 mg/10 ml/kg s.c. qdx5/wx2w): >11.4
Lethal toxicity (dead/treated animals) ([3]; 25 mg/10 ml/kg s.c. qdx5/wx2w): 1/10
TVI % versus control mice ([3]; 25 mg/10 ml/kg s.c. qdx5/wx2w): 100%
cured mice ([3]; 1/3 MTD (8.3 mg/kg)): 50%
cured mice at day 90 ([3]; at the MTD (25 mg/kg s.c.)): 100%
MTD at 2 weeks [4]: ~25 mg/kg
BWL % (maximum body weight loss) ([5]; 56 mg/10 ml/kg i.v. q4dx4): 0%
Lethal toxicity (dead/treated animals) ([5]; 56 mg/10 ml/kg i.v. q4dx4): 0/11
MST (median survival time) ([5]; 56 mg/10 ml/kg i.v. q4dx4): 58 days
Incidence of osteolytic lesions (mice with metastases) ([5]; 56 mg/10 ml/kg i.v. q4dx4, 30 days after tumour injection): 5/11
tolerability ([5]; 56 mg/kg iv (q4dx4), no reduction of body weight or lethal toxicity): well tolerated
incidence of osteolytic lesions, % of mice ([5]; 56 mg/kg iv q4dx4, vehicle-treated group 91%): 45%
